# Test system: Plasmodium berghei
# Assay: Luciferase/luciferin-expressing antifolate-resistant parasites were used to infect a culture of HepG2 cells that were pre-incubated with compounds. Infected hepatocytes emit light due to the luciferase reaction. Assay results are presented as the percent inhibition of light emission compared to control. […]
# Assay type: functional
# Settings: sporozoite; for IC50: read-out: LUCIFERASE INFECTION ASSAY - IC50; for IC90: read-out: LUCIFERASE INFECTION ASSAY - IC90
smiles,measurement,value
O=c1c2ccc(Cl)cc2nc(-c2cccc(C(F)(F)F)c2)n1O,IC50,> 9.69 µM
same,IC90,> 9.69 µM
N#Cc1cc(NC(=O)c2ccc(Cl)cc2)ccc1Sc1ccccc1,IC50,> 9.04 µM
same,IC90,> 9.04 µM
CSCc1cc(N2CCOCC2)nc(SCc2ccc(Cl)cc2Cl)n1,IC50,> 7.93 µM
same,IC90,> 7.93 µM
O=C1C=C(c2ccccc2)C(=O)N1Nc1ccccc1,IC50,> 12.5 µM
same,IC90,> 12.5 µM
Cc1ccc(NN2C(=O)C=C(c3ccc(Cl)cc3)C2=O)cc1,IC50,> 10.6 µM
same,IC90,> 10.6 µM
COc1ccc(CNC(N)=O)cc1,IC50,> 18.3 µM
same,IC90,> 18.3 µM
CN(C)c1cccc(-c2ccc3nnc(-c4cscn4)n3c2)c1,IC50,> 10 µM
same,IC90,> 10 µM
COc1ccc(-c2ccc3nnc(-c4cscn4)n3c2)c(C)c1,IC50,> 10 µM
same,IC90,> 10 µM
Cc1ccc(C(O)c2nnc(Nc3cc(C(F)(F)F)ccc3F)s2)cc1 (centres undefined),IC50,> 10 µM
same,IC90,> 10 µM
COc1ccc(-n2ncc(N3CCC(=O)CC3)c(Cl)c2=O)cc1,IC50,> 9.89 µM
same,IC90,> 9.89 µM
OC(c1cc(F)c(F)c(F)c1)c1nnc(Nc2cccc(Cl)c2)s1 (centres undefined),IC50,> 10 µM
same,IC90,> 10 µM
FC(F)(F)c1nc2ccccc2n2c(-c3ccc(Br)cc3)nnc12,IC50,> 8.39 µM
same,IC90,> 8.39 µM
CCOC(=O)c1ccc(N/C=C(\C(C)=O)c2ccc(OC)c(OC)c2)cc1,IC50,> 8.93 µM
same,IC90,> 8.93 µM
CC(C)c1ccc(-c2ccc3nnc(-c4ccc5nccnc5c4)n3c2)cc1,IC50,> 10 µM
same,IC90,> 10 µM
CC(=O)c1ccc(NC(=O)Nc2ccc3nc(-c4cccc(F)c4)nn3c2)cc1,IC50,5.52 µM
same,IC90,> 10 µM
COc1cnc(-c2ccccn2)nc1SCc1ccccc1,IC50,9.29 µM
same,IC90,> 10.7 µM
CNC(=O)c1cccc(-c2cc(C3(CNc4ccccc4F)CC3)ccn2)c1,IC50,> 10 µM
same,IC90,> 10 µM
COc1cc(NC(=O)c2csc(C(O)c3cccc(C(F)(F)F)c3)n2)cc(OC)c1OC (centres undefined),IC50,> 10 µM
same,IC90,> 10 µM
CC(C)c1cccc(-c2ccc3nnc(-c4ccc(OCCCN(C)C)cc4)n3c2)c1,IC50,> 10 µM
same,IC90,> 10 µM
CN(C)c1cccc(NCC2(c3ccnc(-c4ccccc4Cl)c3)CC2)c1,IC50,> 10 µM
same,IC90,> 10 µM
COc1cc(-c2ccnc3n[nH]c(-c4ccccc4)c23)cc(OC)c1OC,IC50,3.13 µM
same,IC90,> 10 µM
CC(C)(C)N1C(=O)CC(=O)CC1c1ccc(Cl)cc1 (centres undefined),IC50,9.51 µM
same,IC90,11.1 µM
O=C(NNC(=O)c1[nH]c2ccccc2c1-c1ccccc1)Nc1cccc(C(F)(F)F)c1,IC50,> 7.53 µM
same,IC90,> 7.53 µM
CC(=O)c1ccc(NC(=O)Nc2ccc3nc(-c4cccc(C(F)(F)F)c4)nn3c2)cc1,IC50,3.53 µM
same,IC90,7.78 µM
O=C(Nc1ccccc1)OCc1cccnc1Sc1ccc(Cl)cc1,IC50,> 8.9 µM
same,IC90,> 8.9 µM
O=C(Nc1cccc(Cl)c1)c1csc(C(O)C2CCCCC2)n1 (centres undefined),IC50,> 10 µM
same,IC90,> 10 µM
COc1cc(-c2nc3ccc(NC(=O)c4c(C)noc4C)cn3n2)cc(OC)c1OC,IC50,> 10 µM
same,IC90,> 10 µM
FC(F)(F)c1cccc(-c2ccc3nnc(-c4cccc(Cl)c4)n3c2)c1,IC50,> 10 µM
same,IC90,> 10 µM
O=C(Nc1ccc2c(c1)OCO2)c1csc(C(O)c2cccc(C(F)(F)F)c2)n1 (centres undefined),IC50,> 10 µM
same,IC90,> 10 µM
COc1cccc(-c2ccnc3n[nH]c(-c4cccc(C(F)(F)F)c4)c23)c1,IC50,> 10 µM
same,IC90,> 10 µM
O=C(Nc1cc(Cl)cc(Cl)c1)OCc1ccc(Oc2ccccc2)c([N+](=O)[O-])c1,IC50,> 7.62 µM
same,IC90,> 7.62 µM
FC(F)(F)c1cnc(/C=N/Nc2ncc(C(F)(F)F)cc2Cl)c(Cl)c1,IC50,2.69 µM
same,IC90,3.13 µM
COc1ccc(Sc2ccc(NC(=O)c3ccc(F)cc3)cc2C#N)cc1,IC50,> 8.72 µM
same,IC90,> 8.72 µM
CC(C)c1ccc(-c2ccc3nnc(-c4ccc(OCCCN(C)C)cc4)n3c2)cc1,IC50,> 10 µM
same,IC90,> 10 µM
Cc1cc2c(cc1C)NC(c1c(O)ccc3ccccc13)C1C(=O)CC(C)(C)CC1=N2 (centres undefined),IC50,7.67 µM
same,IC90,> 8 µM
O=C(Nc1ccc(OC(F)(F)F)cc1)Nc1ccc2nc(-c3ccoc3)nn2c1,IC50,10 µM
same,IC90,> 10 µM
Cc1ccc(C(=O)C(/C=N/N)=N/Nc2cc(Cl)cc(Cl)c2)cc1,IC50,9.09 µM
same,IC90,> 9.45 µM
FC(F)(F)c1nc2ccccc2nc1N/N=C/C=C/c1ccccc1,IC50,> 9.64 µM
same,IC90,> 9.64 µM
CNc1cc(CSCc2ccc(Cl)cc2)nc(-c2ccccc2)n1,IC50,> 9.27 µM
same,IC90,> 9.27 µM
O=c1c(NS(=O)(=O)c2ccc(Cl)cc2)cccn1Cc1ccc(Cl)c(Cl)c1,IC50,> 7.44 µM
same,IC90,> 7.44 µM
CN(C)c1nn(C(=S)Nc2cccc(C(F)(F)F)c2)cc1-c1ccccc1,IC50,> 8.45 µM
same,IC90,> 8.45 µM
Cc1ccc(NC(=O)c2cccn(Cc3ccc(C(F)(F)F)cc3)c2=O)cc1C,IC50,> 8.24 µM
same,IC90,> 8.24 µM
COc1cccc(NCC2(c3ccnc(-c4ccccc4Cl)c3)CC2)c1,IC50,> 10 µM
same,IC90,> 10 µM
Cc1ccc(NC(=O)Nc2ccc3nc(-c4ccccc4)nn3c2)cc1,IC50,> 10 µM
same,IC90,> 10 µM
O=C(Nc1ccc(F)cc1F)c1nnsc1S(=O)(=O)c1ccc(Cl)cc1,IC50,> 7.94 µM
same,IC90,> 7.94 µM
CN(C)C(=O)c1ccc(-c2ccnc3n[nH]c(-c4cccc(Cl)c4)c23)cc1,IC50,4.64 µM
same,IC90,> 10 µM
COc1cccc(NC(=O)c2csc(C(O)c3cccc(C(F)(F)F)c3)n2)c1 (centres undefined),IC50,> 10 µM
same,IC90,> 10 µM
N#Cc1cc(NC(=O)c2cccc(Cl)c2)ccc1Sc1cccc(C(F)(F)F)c1,IC50,> 7.62 µM
same,IC90,> 7.62 µM
O=C(Nc1cccc(F)c1)Nc1ccc2nc(-c3cccnc3)nn2c1,IC50,> 10 µM
same,IC90,> 10 µM
CS(=O)(=O)c1ccc(-c2cc(C3(CNc4cccc(Cl)c4)CC3)ccn2)cc1,IC50,> 10 µM
same,IC90,> 10 µM
COc1ccc(S(=O)(=O)NN(C)c2nc3ccccc3nc2C(F)(F)F)cc1,IC50,5.18 µM
same,IC90,> 8 µM
COc1ccc(-c2nc3ccc(NC(=O)Nc4ccc(OC)c(OC)c4)cn3n2)cc1,IC50,> 10 µM
same,IC90,> 10 µM
Cc1ccccc1Sc1ccc(NC(=O)c2ccc(F)cc2)cc1C#N,IC50,> 9.11 µM
same,IC90,> 9.11 µM
CC(C)c1cccc(Nc2nnc(C(O)c3ccccc3Cl)s2)c1 (centres undefined),IC50,> 10 µM
same,IC90,> 10 µM
COc1ccccc1-c1nc2ccc(NC(=O)c3cc(C(C)(C)C)nn3C)cn2n1,IC50,> 10 µM
same,IC90,> 10 µM
CCOC(=O)c1nnsc1[S+]([O-])c1ccc(Cl)cc1 (centres undefined),IC50,> 10.4 µM
same,IC90,> 10.4 µM
O=C(NC1CC1)c1csc(C(O)c2cccc(Cl)c2)n1 (centres undefined),IC50,3.36 µM
same,IC90,> 10 µM
COc1cccc(C(=O)Nc2ccc(Sc3cccc(C(F)(F)F)c3)c(C#N)c2)c1,IC50,> 7.7 µM
same,IC90,> 7.7 µM
COc1cc(-n2nnnc2-c2ccc([N+](=O)[O-])cc2)c(Cl)cc1Cl,IC50,> 9.01 µM
same,IC90,> 9.01 µM
COc1cc(NC(=O)c2sccc2Oc2ccccc2[N+](=O)[O-])c(Cl)cc1Cl,IC50,> 7.51 µM
same,IC90,> 7.51 µM
COc1ccc(NC(=O)Nc2ccc3nc(-c4ccccc4)nn3c2)cc1OC,IC50,> 10 µM
same,IC90,> 10 µM
Clc1ccc2[nH]c(-c3cccs3)c(-c3ccccc3)c2c1,IC50,5.01 µM
same,IC90,> 10.7 µM
FC(F)(F)c1cnc(N/N=C/c2ccccn2)c(Cl)c1,IC50,3.33 µM
same,IC90,4 µM
N#Cc1cc(NC(=O)c2ccc(F)cc2)ccc1Sc1cccc(C(F)(F)F)c1,IC50,3.07 µM
same,IC90,> 7.93 µM
O=C(/C=C/c1ccco1)Nc1ccc(Cl)cc1Cl,IC50,9.77 µM
same,IC90,11.1 µM
CN(NC(=O)c1cccc(C(F)(F)F)c1)c1c(C#N)c(C(F)(F)F)nn1C,IC50,> 8.43 µM
same,IC90,> 8.43 µM
O=C(Nc1cccc(Cl)c1)Nc1ccc2nc(Cc3ccccc3)nn2c1,IC50,2.79 µM
same,IC90,3.2 µM
CC(=N\Nc1ccc(F)cc1)/C(=N/O)C(=O)Nc1ccccc1,IC50,> 10.5 µM
same,IC90,> 10.5 µM
COc1ccc(C(=O)Nc2ccc3nc(-c4ccccc4)nn3c2)cc1OC,IC50,> 10 µM
same,IC90,> 10 µM
Fc1ccc(CNCC2(c3ccnc(-c4ccc(Cl)cc4)c3)CC2)cc1F,IC50,> 10 µM
same,IC90,> 10 µM
c1ccc(Oc2cccc(-c3ccc4nnc(-c5ccccc5)n4c3)c2)cc1,IC50,> 10 µM
same,IC90,> 10 µM
COc1ccc(C(=O)Nc2ccc3nc(-c4ccccc4OC)nn3c2)cc1OC,IC50,> 10 µM
same,IC90,> 10 µM
N#Cc1[nH]c2ccc(Cl)cc2c1-c1ccccc1,IC50,> 13.1 µM
same,IC90,> 13.1 µM
O=C(Nc1ccc(Oc2ccccc2)cc1)c1csc(C(O)c2ccccc2)n1 (centres undefined),IC50,1.63 µM
same,IC90,7.41 µM
O=S(=O)(Cc1cc(N2CCN(c3ccccc3)CC2)nc(-c2ccccn2)n1)c1ccccc1,IC50,> 7 µM
same,IC90,> 7 µM
O=C(Nc1nc(=O)n(C(=O)c2cccs2)s1)c1ccccc1,IC50,> 9.96 µM
same,IC90,> 9.96 µM
C=C(C)C(=O)Nc1ccc([N+](=O)[O-])cc1Cl,IC50,> 13.7 µM
same,IC90,> 13.7 µM
COc1ccc(-c2cc(C3(CNCc4ccc(N(C)C)cc4)CC3)ccn2)cn1,IC50,> 10 µM
same,IC90,> 10 µM
O=C(Nc1cccc(F)c1)C1(c2ccnc(Nc3ccc(C(F)(F)F)cc3)c2)CC1,IC50,> 10 µM
same,IC90,> 10 µM
COc1ccc(NC(=O)Nc2ccc3nc(-c4ccccc4OC)nn3c2)cc1OC,IC50,> 10 µM
same,IC90,> 10 µM
COc1cccc(-c2nc3ccc(NC(=O)Nc4cccc(C(C)=O)c4)cn3n2)c1,IC50,> 10 µM
same,IC90,> 10 µM
[O-][S+](Cc1cc(N2CCCCC2)nc(-c2ccccn2)n1)c1ccc(Cl)cc1 (centres undefined),IC50,> 7.99 µM
same,IC90,> 7.99 µM
N#CCCC(C#N)(c1ccc(F)cc1)c1cccc(F)c1C#N (centres undefined),IC50,> 10.7 µM
same,IC90,> 10.7 µM
Clc1ccc(SCc2cc(NCc3ccccc3)nc(-c3cccnc3)n2)cc1,IC50,6.53 µM
same,IC90,7.84 µM
O=C(Nc1ccc(F)cc1)c1csc(C(O)c2cccc(Cl)c2)n1 (centres undefined),IC50,> 10 µM
same,IC90,> 10 µM
OC(c1ccc(Cl)cc1)c1nnc(Nc2cc(C(F)(F)F)ccc2F)s1 (centres undefined),IC50,> 10 µM
same,IC90,> 10 µM
COc1ccc(Sc2ccc(NC(=O)c3ccc(Cl)cc3Cl)cc2C#N)cc1,IC50,> 7.69 µM
same,IC90,> 7.69 µM
